ChEMBL document CHEMBL4837226, “Discovery of pyrrole derivatives for the treatment of glioblastoma and chronic myeloid leukemia” (Eur J Med Chem, 2021)
Calls of active or inactive are those of the source. The rule behind the calls is not given here.

Columns and labels:
MCF7 = assay: Cytotoxicity against human MCF7 cells assessed as cell growth inhibition measured after 96 hrs; format: functional, cell-based; settings: MCF7, 96 h
KBM5 [1] = assay: Potentiation of ponatinib-induced apoptosis human KBM5 cells expressing T315I mutant assessed as increase in apoptotic cells at 5 nM measured after 48 hrs by annexin V staining based flow cytometry analysis (reference value: 35 %); format: functional
KBM5 [2] = assay: Potentiation of ponatinib-induced mitochondrial membrane depolarization in human KBM5 cells expressing T315I mutant at 5 nM in the presence of ponatinib measured upto 48 hrs by JC-1 staining based flow cytometry analysis (Rvb= 32.7 %); format: functional; settings: time hrs <=48
U-87 MG = assay: Cytotoxicity against human U-87MG cells assessed as cell growth inhibition measured after 48 hrs by MTS colorimetric assay; format: functional, cell-based, U-87MG ATCC
KBM5 [3] = assay: Induction of apoptosis in human KBM5 cells expressing T315I mutant assessed as increase in cytochrome C expression at 1 to 10 uM measured after 24 hrs by western blot analysis; format: functional, cell-based; settings: dose 1-10 µM
SW-620 = assay: Cytotoxicity against human SW-620 cells assessed as cell growth inhibition measured after 48 hrs by XTT dye based assay; format: functional; settings: SW-620, 48 h
KBM5 [4] = assay: Potentiation of ponatinib-induced apoptosis human KBM5 cells assessed as increase in apoptotic cells at 5 nM measured after 48 hrs by annexin V staining based flow cytometry analysis; format: functional, cell-based
[5] = Cytotoxicity against human U-343MG cells assessed as cell growth inhibition measured after 72 hrs by MTS colorimetric assay; format: functional, cell-based
[6] = target: Bcr/Abl fusion protein (Homo sapiens) (UniProt P00519+P11274); assay: Inhibition of Bcr-Abl tyrosine phosphorylation in human KBM5 cells expressing T315I mutant at 1 to 10 nM in the presence of ponatinib measured after 24 hrs by western blot analysis; format: cell-based; settings: dose 1-10 nM
[7] = target: T1, DNA topoisomerase 1 (Homo sapiens) (UniProt P11387); assay: Inhibition of human recombinant topoisomerase I assessed as DNA cleavage using supercoiled pHOT1 plasmid DNA as substrate at 100 uM measured after 1 hr by agarose gel electrophoresis analysis
T1 sequence (whole entry): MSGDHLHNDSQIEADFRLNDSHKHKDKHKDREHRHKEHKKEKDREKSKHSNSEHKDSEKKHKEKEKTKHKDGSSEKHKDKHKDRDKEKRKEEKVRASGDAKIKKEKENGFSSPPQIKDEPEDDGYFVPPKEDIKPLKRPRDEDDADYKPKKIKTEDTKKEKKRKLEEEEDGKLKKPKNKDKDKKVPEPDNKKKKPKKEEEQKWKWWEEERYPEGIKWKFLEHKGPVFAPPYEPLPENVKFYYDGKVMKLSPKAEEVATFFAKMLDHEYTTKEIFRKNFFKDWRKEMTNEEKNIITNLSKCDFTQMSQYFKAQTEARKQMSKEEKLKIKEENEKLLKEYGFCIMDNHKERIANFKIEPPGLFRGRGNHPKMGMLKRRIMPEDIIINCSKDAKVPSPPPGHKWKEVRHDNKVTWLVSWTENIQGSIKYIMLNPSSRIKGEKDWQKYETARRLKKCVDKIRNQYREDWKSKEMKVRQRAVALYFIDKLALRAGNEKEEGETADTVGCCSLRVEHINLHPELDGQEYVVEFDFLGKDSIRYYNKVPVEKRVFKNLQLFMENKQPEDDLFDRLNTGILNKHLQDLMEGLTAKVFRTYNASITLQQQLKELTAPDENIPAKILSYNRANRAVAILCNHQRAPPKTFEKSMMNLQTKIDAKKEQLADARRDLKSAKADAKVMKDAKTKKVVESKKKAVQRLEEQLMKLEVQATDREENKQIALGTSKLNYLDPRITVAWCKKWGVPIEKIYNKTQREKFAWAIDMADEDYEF

KU812 cell line = assay: Potentiation of ponatinib-induced apoptosis in human KU812 cells assessed as increase in apoptotic cells at 5 nM measured after 48 hrs by annexin V staining based flow cytometry analysis; format: functional, cell-based

Bcr/Abl fusion protein (Homo sapiens), sequence (P00519 whole entry, looked up, the tested form may be a part): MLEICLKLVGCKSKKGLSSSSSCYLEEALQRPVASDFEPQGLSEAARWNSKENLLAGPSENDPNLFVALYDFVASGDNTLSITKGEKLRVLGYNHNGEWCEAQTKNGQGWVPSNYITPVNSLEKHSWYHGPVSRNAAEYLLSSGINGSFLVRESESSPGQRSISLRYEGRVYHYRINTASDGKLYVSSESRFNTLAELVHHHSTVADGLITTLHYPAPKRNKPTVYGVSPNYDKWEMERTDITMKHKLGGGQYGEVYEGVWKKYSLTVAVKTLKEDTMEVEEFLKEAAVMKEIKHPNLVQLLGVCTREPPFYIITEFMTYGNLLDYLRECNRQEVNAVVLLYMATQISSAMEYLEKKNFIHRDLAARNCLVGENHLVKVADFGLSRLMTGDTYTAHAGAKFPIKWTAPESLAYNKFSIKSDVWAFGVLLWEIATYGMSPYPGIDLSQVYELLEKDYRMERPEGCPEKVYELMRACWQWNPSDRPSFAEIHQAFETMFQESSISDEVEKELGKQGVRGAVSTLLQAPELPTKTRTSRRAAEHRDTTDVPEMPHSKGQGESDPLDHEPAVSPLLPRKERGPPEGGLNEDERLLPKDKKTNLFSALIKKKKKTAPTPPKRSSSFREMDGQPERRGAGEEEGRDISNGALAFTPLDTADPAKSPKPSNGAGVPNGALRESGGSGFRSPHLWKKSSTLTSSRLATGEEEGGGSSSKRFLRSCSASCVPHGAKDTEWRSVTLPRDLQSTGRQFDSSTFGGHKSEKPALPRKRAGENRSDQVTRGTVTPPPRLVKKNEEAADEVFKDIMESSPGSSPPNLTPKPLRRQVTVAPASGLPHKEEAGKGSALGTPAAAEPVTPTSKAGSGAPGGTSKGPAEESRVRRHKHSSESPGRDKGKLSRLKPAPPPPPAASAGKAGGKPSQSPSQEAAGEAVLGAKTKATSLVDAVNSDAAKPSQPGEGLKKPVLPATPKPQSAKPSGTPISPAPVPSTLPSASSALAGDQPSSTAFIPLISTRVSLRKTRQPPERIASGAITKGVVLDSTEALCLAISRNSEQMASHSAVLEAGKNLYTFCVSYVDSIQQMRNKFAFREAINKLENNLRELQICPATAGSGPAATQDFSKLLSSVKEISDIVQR
Bcr/Abl fusion protein (Homo sapiens), sequence (P11274 whole entry, looked up, the tested form may be a part): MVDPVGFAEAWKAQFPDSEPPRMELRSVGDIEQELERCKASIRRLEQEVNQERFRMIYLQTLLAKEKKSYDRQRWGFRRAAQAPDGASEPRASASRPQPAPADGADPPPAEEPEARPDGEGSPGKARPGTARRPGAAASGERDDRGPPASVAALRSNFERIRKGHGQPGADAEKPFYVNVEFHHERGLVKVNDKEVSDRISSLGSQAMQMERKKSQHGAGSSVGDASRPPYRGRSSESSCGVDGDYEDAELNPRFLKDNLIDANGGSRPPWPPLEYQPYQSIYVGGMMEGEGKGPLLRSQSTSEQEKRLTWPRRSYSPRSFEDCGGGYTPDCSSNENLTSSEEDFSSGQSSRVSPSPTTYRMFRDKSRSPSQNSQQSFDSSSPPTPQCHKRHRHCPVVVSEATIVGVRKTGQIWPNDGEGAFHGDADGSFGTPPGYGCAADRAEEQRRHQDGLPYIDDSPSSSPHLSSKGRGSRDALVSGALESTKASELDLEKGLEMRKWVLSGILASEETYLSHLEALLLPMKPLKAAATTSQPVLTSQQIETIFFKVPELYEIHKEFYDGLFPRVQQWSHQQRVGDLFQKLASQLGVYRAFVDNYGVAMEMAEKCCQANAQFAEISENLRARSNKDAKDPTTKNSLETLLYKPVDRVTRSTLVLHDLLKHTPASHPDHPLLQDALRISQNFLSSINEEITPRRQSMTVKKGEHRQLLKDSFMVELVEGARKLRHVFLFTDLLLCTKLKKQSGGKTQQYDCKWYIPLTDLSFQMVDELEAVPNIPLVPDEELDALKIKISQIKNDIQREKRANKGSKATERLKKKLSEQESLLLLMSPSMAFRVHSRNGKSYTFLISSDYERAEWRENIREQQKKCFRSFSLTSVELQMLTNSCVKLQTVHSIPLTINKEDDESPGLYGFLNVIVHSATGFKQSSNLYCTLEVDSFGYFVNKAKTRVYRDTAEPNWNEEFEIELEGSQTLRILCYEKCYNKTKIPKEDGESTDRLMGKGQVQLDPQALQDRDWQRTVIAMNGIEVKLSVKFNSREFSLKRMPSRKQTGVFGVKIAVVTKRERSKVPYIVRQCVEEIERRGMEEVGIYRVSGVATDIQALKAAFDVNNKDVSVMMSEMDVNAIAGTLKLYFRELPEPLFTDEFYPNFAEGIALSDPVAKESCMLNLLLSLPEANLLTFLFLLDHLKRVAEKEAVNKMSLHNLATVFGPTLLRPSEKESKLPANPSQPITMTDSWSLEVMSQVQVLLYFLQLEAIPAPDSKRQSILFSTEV

COc1cc(C(=O)c2cn(-c3ccc(C)cc3)cc2-c2ccsc2)cc(OC)c1OC
IC50 (MCF7): 4 nM | Activity (KBM5 [1]): 70% | Activity (KBM5 [2]): 56.7% | IC50 (U-87 MG): 19.4 nM | Activity (KBM5 [3]): Active | IC50 (SW-620): 111 nM | Activity (KBM5 [4]): Active | IC50 [5]: 18.6 nM | inhibition [6]: Active | inhibition [7]: Active | Activity (KU812 cell line): Active
